Measurements taken from patent publication US20240025918A1, “KRAS G12D Inhibitors” (Jacobio Pharmaceuticals Co., Ltd, priority 2020, published 2024).

Assays:
AGS = assay: Cell growth inhibition assay, AGS (CellTiter-Glo); assay type: cell-based; conditions: Homo sapiens, 144 h; AGS cell viability, 6 days incubation
Description: AGS cultured in F12K medium (Gibco) containing 10% fetal bovine serum (Gibco). Cells in culture medium were plated in 96-well plates at a concentration of 500 cells/well (100 μL/well) and allowed to attach overnight.
(§1) The next day, compounds were diluted in culture medium and added to the plates. After 6 days incubation in a 37° C./5% CO2 cell incubator, the cell viability was detected by CellTiter-Glo® Luminescent Cell Viability Assay kit (Promega). Luminescent signals were read on Tecan Spark multimode microplate reader and analyzed using a 4-parameter logistic model to calculate IC50 values.

[1] = target: T1, GDP-loaded HIS-KRAS(G12D, aa 1-169) (Homo sapiens, UniProt P01116, G12D); assay: SOS1 catalyzed nucleotide exchange assay (TR-FRET); assay type: biochemical; conditions: 4 hours at 25° C.
T1 construct: GDP-loaded HIS-KRAS(G12D, aa 1-169)
T1 sequence (P01116 1-169 isoform P01116-2 G12D): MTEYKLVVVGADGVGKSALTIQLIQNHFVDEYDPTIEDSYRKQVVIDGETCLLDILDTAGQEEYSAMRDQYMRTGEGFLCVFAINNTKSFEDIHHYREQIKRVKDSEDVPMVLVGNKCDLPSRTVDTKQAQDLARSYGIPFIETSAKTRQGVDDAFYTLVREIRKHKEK
Description: GDP-loaded HIS-KRAS(G12D, aa 1-169) was pre-incubated with a compound in the presence of 10 nM GDPin a 384-well plate (Greiner) for 15 min, then purified SOS1 ExD(Flag tag, aa 564-1049), BODIPY™ FL GTP (Invitrogen) and MAb (monoclonal antibody) Anti 6HIS-Tb cryptate Gold (Cisbio) were added to the assay wells (Final concentration: 1.5 nM GDP-loaded HIS-KRAS(G12D), 5 nM GDP, 0.5 μM SOS1 ExD, 80 nM BODIPY™ FL GTP, 52.5 ng/mL MAb Anti 6HIS-Tb cryptate Gold) and incubated for 4 hours at 25° C. Wells containing same percent of DMSO served as vehicle control, and wells without KRAS served as low control. TR-FRET signals were read on Tecan Spark multimode microplate reader. The parameters were F486: Excitation 340 nm, Emission 486 nm, Lag time 100 μs, Integration time 200 μs; F515: Excitation 340 nm, Emission 515 nm, Lag time 100 μs, Integration time 200 μs. TR-FRET ratios for each individual wells were calculated by equation: TR-FRET ratio=(Signal F515/Signal F486)*10000. The percent of activation of compounds treated wells were normalized between vehicle control and low control (% Activation=(TR-FRET ratioCompound treated−TR-FRET ratioLow control)/(TR-FRET ratioVehicle control−TR-FRET ratioLow control)*100%). Then the data were analyzed by fitting a 4-parameter logistic model or calculating in Excel to calculate IC50 values.

AsPC-1 = assay: Cell growth inhibition assay, AsPC-1 (CellTiter-Glo); assay type: cell-based; conditions: Homo sapiens, ASPC1, 144 h; AsPC-1 cell viability, 6 days incubation
Description: AsPC-1 cultured in RPMI-1640 medium (Gibco) containing 10% fetal bovine serum (Gibco). Cells in culture medium were plated in 96-well plates at a concentration of 1000 cells/well (100 μL/well) and allowed to attach overnight.
as §1

[2] = system: AGS cells expressing KRAS G12D; assay: Phospho-ERK1/2(THR202/TYR204) HTRF assay; assay type: cell-based; conditions: Homo sapiens; Phospho-ERK1/2 in AGS cells, 2 hours incubation
Description: AGS cells expressing KRAS G12D were cultured in F12K medium (Gibco) containing 10% fetal bovine serum (Gibco). The AGS cells in culture medium were seeded in 96-well plates at a concentration of 40,000 cells/well and then put in a 37° C./5% CO2 cell incubator to incubate overnight. The next day, culture medium was removed and the compound diluted in assay medium (F12K, 0.1% FBS) was added in each well. After 2 hours incubation in a 37° C./5% CO2 cell incubator, the assay medium in 96-well plates was removed, then 50 μL of 1× blocking reagent-supplemented lysis buffer (Cisbio) was added and the plates were incubated at 25° C. for 45 min with shaking. 10 μL of cell lysates from the 96-well plates were transferred to a 384-well plate (Greiner) containing 2.5 μL/well HTRF® pre-mixed antibodies (Cisbio 64AERPEH). Incubate 4 hours at 25° C. and then read HTRF signals on Tecan Spark multimode microplate reader. The data were analyzed using a 4-parameter logistic model to calculate IC50 values.

[3] = target: T2, GppNp-loaded HIS-KRAS(G12D, aa 1-169) and cRAF RBD (Homo sapiens, UniProt P01116, G12D); assay: GTP-KRAS and cRAF interaction assay (HTRF); assay type: biochemical; conditions: 2 hours at 25° C.
T2 construct: GppNp-loaded HIS-KRAS(G12D, aa 1-169)
T2 sequence (P01116 1-169 isoform P01116-2 G12D): as above
Description: GppNp-loaded HIS-KRAS(G12D, aa 1-169) was pre-incubated with a compound in the presence of 200 μM GTP in a 384-well plate (Greiner) for 15 min, then cRAF RBD(GST tag, aa 50-132, CreativeBioMart), MAb Anti GST-d2 (Cisbio) and MAb Anti 6HIS-Tb cryptate Gold (Cisbio) were added to the assay wells (Final concentration: 2.0 nM GppNp-loaded HIS-KRAS(G12D), 100 μM GTP, 35 nM cRAF RBD, 1 μg/mL MAb Anti GST-d2, 52.5 ng/mL MAb Anti 6HIS-Tb cryptate Gold) and incubated for 2 hours at 25° C. Wells containing same percent of DMSO served as vehicle control, and wells without KRAS served as low control. HTRF signals were read on Tecan Spark multimode microplate reader and HTRF ratios were calculated under manufacturer's instructions. The percent of activation of compounds treated wells were normalized between vehicle control and low control (% Activation=(HTRF ratioCompound treated−HTRF ratioLow control)/(HTRF ratioVehicle control−HTRF ratioLow control)*100%). Then the data were analyzed by fitting a 4-parameter logistic model or calculating in Excel to calculate IC50 values.

| SMILES | IC50 (AGS) | IC50 [1] | IC50 (AsPC-1) | IC50 [2] | IC50 [3] |
| --- | --- | --- | --- | --- | --- |
| C#Cc1c(F)ccc2cc(O)cc(-c3ccc4c(N5CC6CCC(C5)N6)nc(OCC5(CN6C7CCC6COC7)CC5)nc4c3F)c12 [Compound 7] | 5.66 nM | 6.27 nM | 72.2 nM | 3.53 nM | 27.2 nM |
| C#Cc1cccc2cc(O)cc(-c3ccc4c(N5CC6CCC(C5)N6)nc(OCC5(CN6CC7CCC(C6)O7)CC5)nc4c3F)c12 [Compound 8] | 31.6 nM | 16.8 nM | 55.3 nM | 21.2 nM | 307 nM |
| C#Cc1cccc2cc(O)cc(-c3ccc4c(N5CC6CCC(C5)N6)nc(OCC5(CN6CC7CC6CO7)CC5)nc4c3F)c12 (stereo not drawn) [Compound 9] | 10.5 nM | 7.77 nM | 138 nM | 2.59 nM | 62 nM |
| C#Cc1cccc2cc(O)cc(-c3ccc4c(N5CC6CCC(C5)N6)nc(OCC5(CN6C7CCC6COC7)CC5)nc4c3F)c12 [Compound 10] | 11.1 nM | 12.1 nM | 57.6 nM | 6.18 nM | 77.3 nM |
| C#Cc1cccc2cc(O)cc(-c3c(F)cc4c(N5CC6CCC(C5)N6)nc(OCC5(CN6CCC7(CCO7)CC6)CC5)nc4c3F)c12 [Compound 11] | 15.7 nM | 31.6 nM | 214 nM | 9.49 nM | 86.6 nM |
| C#Cc1cccc2cc(O)cc(-c3c(F)cc4c(N5CC6CCC(C5)N6)nc(OCC5(CN6CCC7(CC6)COC7)CC5)nc4c3F)c12 [Compound 12] | 3.69 nM | 14.2 nM | 83.2 nM | 1.94 nM | 80.8 nM |
| C#Cc1cccc2cc(O)cc(-c3c(F)cc4c(N5CC6CCC(C5)N6)nc(OCC5(CN6CCC7(C6)CC7(F)F)CC5)nc4c3F)c12 (stereo not drawn) [Compound 14] | 10.7 nM | 4.36 nM | 26.5 nM | 182 nM | 79.2 nM |
| C#Cc1cccc2cc(O)cc(-c3c(F)cc4c(N5CC6CCC(C5)N6)nc(OCC5(CN6CCc7cccnc7C6)CC5)nc4c3F)c12 [Compound 15] | 13.9 nM | 6.06 nM | 97.3 nM | 68.9 nM | 157 nM |
| C#Cc1cccc2cc(O)cc(-c3c(F)cc4c(N5CC6CCC(C5)N6)nc(OCC5(CN6Cc7cccnc7C6)CC5)nc4c3F)c12 [Compound 17] | 11.8 nM | 1.99 nM | 158 nM | 56.3 nM | 273 nM |
| C#Cc1cccc2cc(O)cc(-c3c(F)cc4c(N5CC6CCC(C5)N6)nc(OCC5(CN6CC7(COC7)C6)CC5)nc4c3F)c12 [Compound 19] | 12.9 nM | 2.27 nM | 710 nM | 19.8 nM | 66.9 nM |
| C#Cc1cccc2cc(O)cc(-c3c(F)cc4c(N5CC6CCC(C5)N6)nc(OCC5(CN6CC7(CCC7)C6)CC5)nc4c3F)c12 [Compound 20] | 23.3 nM | 1.33 nM | 264 nM | 39.2 nM | 58.1 nM |
| C#Cc1cccc2cc(O)cc(-c3c(F)cc4c(N5CC6CCC(C5)N6)nc(OCC5(CN6CC(OC)C6)CC5)nc4c3F)c12 [Compound 21] | 16.3 nM | 1.94 nM | 334 nM | 13.5 nM | 74.5 nM |
| C#Cc1cccc2cc(O)cc(-c3c(F)cc4c(N5CC6CCC(C5)N6)nc(OCC5(CN6CC7(CCOCC7)C6)CC5)nc4c3F)c12 [Compound 22] | 19.7 nM | 1.39 nM | 413 nM | 6.95 nM | 40.2 nM |
| C#Cc1cccc2cc(O)cc(-c3c(F)cc4c(N5CC6CCC(C5)N6)nc(OCC5(CN6CC7COCC7C6)CC5)nc4c3F)c12 (stereo not drawn) [Compound 24] | 3.66 nM | 1.26 nM | 36 nM | 2.48 nM | 25.2 nM |
| C#Cc1cccc2cc(O)cc(-c3c(F)cc4c(N5CC6CCC(C5)N6)nc(OCC5(CN6CC7CCCC7C6)CC5)nc4c3F)c12 (stereo not drawn) [Compound 25] | 13.2 nM | 1.48 nM | 96.6 nM | 14.7 nM | 51 nM |
| C#Cc1cccc2cc(O)cc(-c3c(F)cc4c(N5CC6CCC(C5)N6)nc(OCC5(CN6CC(C)(OC)C6)CC5)nc4c3F)c12 [Compound 27] | 29.3 nM | 9.61 nM | 533 nM | 19.3 nM | 190 nM |
| C#Cc1cccc2cc(O)cc(-c3c(F)cc4c(N5CC6CCC(C5)N6)nc(OCC5(CN6CCC7(CC6)CC7)CC5)nc4c3F)c12 [Compound 28] | 8.37 nM | 1.76 nM | 98.6 nM | 26.2 nM | 52.5 nM |
| C#Cc1cccc2cc(O)cc(-c3ccc4c(N5CC6CCC(C5)N6)nc(OCC5(CN6CCC7(CC6)CC7)CC5)nc4c3F)c12 [Compound 30] | 9.77 nM | 28.6 nM | 81.7 nM | 31.5 nM | 133 nM |
| C#Cc1cccc2cc(O)cc(-c3ccc4c(N5CC6CCC(C5)N6)nc(OCC5(CN6CC(OC)C6)CC5)nc4c3F)c12 [Compound 31] | 26.2 nM | 23.2 nM | 215 nM | 13.4 nM | 108 nM |
| C#Cc1cccc2cc(O)cc(-c3ccc4c(N5CC6CCC(C5)N6)nc(OCC5(CN6CC7CCCC7C6)CC5)nc4c3F)c12 (stereo not drawn) [Compound 32] | 8.82 nM | 35.5 nM | 67.1 nM | 34.8 nM | 93.1 nM |
| C#Cc1cccc2cc(O)cc(-c3ccc4c(N5CC6CCC(C5)N6)nc(OCC5(CN6CC(C)(OC)C6)CC5)nc4c3F)c12 [Compound 33] | 15.3 nM | 31.6 nM | 151 nM | 12.8 nM | 126 nM |
| C#Cc1cccc2cc(O)cc(-c3c(F)cc4c(N5CC6CCC(C5)N6)nc(OCC5(CN6CCC7(CCCCO7)C6)CC5)nc4c3F)c12 (stereo not drawn) [Compound 34] | 16.9 nM | 3.07 nM | 208 nM | 38.9 nM | 82.6 nM |
| C#Cc1cccc2cc(O)cc(-c3c(F)cc4c(N5CC6CCC(C5)N6)nc(OCC5(CN6CCOCC67CCC7)CC5)nc4c3F)c12 [Compound 35] | 8.43 nM | 2.17 nM | 59.6 nM | 20.2 nM | 157 nM |
| C#Cc1cccc2cc(O)cc(-c3c(F)cc4c(N5CC6CCC(C5)N6)nc(OCC5(CN6C[C@H]7C[C@@H]6CO7)CC5)nc4c3F)c12 [Compound 36] | 8.71 nM | 2.1 nM | 77.4 nM | 3.07 nM | 35.1 nM |
